{"source": "paper PMC9960821", "about": "“Evaluation of Rhenium and Technetium-99m Complexes Bearing Quinazoline Derivatives as Potential EGFR Agents” (Molecules, 2023)", "key": {"[1]": {"experiment": "Stability of 99mTc complexes in reaction mixture and after isolation in PBS (RP-HPLC)", "type": "physicochemical", "experimental": "The stability of complexes 5b and 7b was studied in their reaction mixture and after isolation by HPLC for up to 24 h.\nStability of ^99mTc complexes in the reaction mixture: Samples of the ^99mTc complexes’ reaction mixture were stored at room temperature for up to 24 h. At 1, 6, and 24 h intervals, 100 μL of each sample was removed and analyzed by RP-HPLC.\nStability of isolated ^99mTc complexes: Purification and isolation of 5b and 7b complexes were performed by injection of the reaction mixture into RP-HPLC and isolation of the eluted compounds’ peaks, corresponding to the elution time of each complex. Followingly, 0.1 M PBS buffer solution (900 µL) was added to a vial containing 100 µL (50–120 MBq) of the isolated technetium-99m complex. The sample was incubated at 37 °C for up to 24 h and analyzed by RP-HPLC at 1, 6, and 24 h intervals."}, "[2]": {"experiment": "Lipophilicity, shake-flask distribution coefficient", "type": "physicochemical", "settings": "n-octanol/0.1 M phosphate buffer pH 7.4", "experimental": "The pharmacokinetic profile of the studied compounds could be affected by their lipophilicity, expressed as the logarithm of the distribution coefficient (log Do/w). The lipophilicity of complexes 5b and 7b was determined in physiological conditions (n-octanol/0.1 M phosphate buffer pH 7.4). […] The presence of the pyridine ring in the chemical structure of complex […] increases the log D7.4 value, as expected.\nThe distribution coefficient of the 5b and 7b complexes was determined with the shake-flask method. The RP-HPLC isolated ^99mTc complexes (20 μL, ~75 kBq) were mixed with 2 mL of 1-octanol and 2 mL of phosphate buffer solution (PBS, 0.1 M, pH 7.4) in a centrifuge tube. The mixture was vortexed at room temperature for 2 min and centrifuged at 5000 rpm for 10 min. The radioactivity of each phase (200 μL) was counted in a gamma counter. The distribution coefficient was calculated by dividing the cpm/mL in the 1-octanol phase by those in the buffer, and the results were expressed as logD7.4. Each experiment was run in triplicate."}}}
{"compound": "O=C([O-])CN(CCCCCC(=O)Nc1ccc2ncnc(Nc3cccc(Br)c3)c2c1)Cc1ccccn1.[99Tc+].[C-]#[O+].[C-]#[O+].[C-]#[O+]", "note": "[Compound 5b, fac-[^99mTc(NNO)(CO)3]]", "values": [{"measurement": "%RCP in PBS for 24 h", "setting": "[1]; 0.1 M PBS, 37 °C, 24 h", "result": "99 ± 2", "unit": "%"}, {"measurement": "Stability in reaction mixture and after isolation by HPLC", "setting": "[1]; up to 24 h, room temperature or 37 °C", "result": "No decomposition"}, {"measurement": "log D7.4", "setting": "[2]", "result": "3.27 ± 0.25"}]}
